Reference: patent US20240066045A1, “SEMICARBAZONE-BASED SAPONIN CONJUGATE” (priority 2020, published 2024)
Like-named read-outs stand apart in the source and are kept apart here.

How the values were obtained:
[1] = In vivo tolerability: clinical observations, body weight, serum ALT; set-up: species or system C57BL/6J mice; details: study A; doses and dose regimens of Table A5, iv
Protocol: In Vivo Tolerability and Efficacy of Trivalent GalNAc-Conjugates in a C57BL/6J Model • Dose administration and in-life phase. Per group, 8 C57BL/6J male mice for treatment groups (in study A, 14 mice in vehicle control group), approximately 6-7 weeks at arrival and 8-9 weeks at dosing, were dosed. The compounds, formulated in PBS or PBS alone (vehicle) according to Table A5 and Table A6, were dosed at 5 ml/kg in the tail vain (intravenously, iv), with dose volumes corresponding to the individual bodyweights. Where applicable, trivalent (GalNAc)3-SO1861 (EMCH) was co-administered at 5 ml/kg in the tail vain (iv) right after the trivalent GalNAc-ApoB conjugate. Animals were weighed weekly and clinical observations were performed 2-3 times daily within the first 48 hrs, and at least once daily thereafter until study end. • Sampling of serum, liver, and kidney tissue. […]
Serum alanine transaminase (ALT) levels was measured using an AU480 assay kit from Beckman Coulter (photometric measurements), according to the manufacturer's instructions.

[2] = tested on: apoB RNA in liver tissue; test: In vivo efficacy: apoB RNA in liver tissue (qRT-PCR); set-up: species or system C57BL/6J mice; details: for reduction of liver apoB RNA compared to vehicle: study A
Protocol: (§1) In Vivo Tolerability and Efficacy of Trivalent GalNAc-Conjugates in a C57BL/6J Model • Dose administration and in-life phase. Per group, 8 C57BL/6J male mice for treatment groups (in study A, 14 mice in vehicle control group), approximately 6-7 weeks at arrival and 8-9 weeks at dosing, were dosed. The compounds, formulated in PBS or PBS alone (vehicle) according to Table A5 and Table A6, were dosed at 5 ml/kg in the tail vain (intravenously, iv), with dose volumes corresponding to the individual bodyweights. Where applicable, trivalent (GalNAc)3-SO1861 (EMCH) was co-administered at 5 ml/kg in the tail vain (iv) right after the trivalent GalNAc-ApoB conjugate. Animals were weighed weekly and clinical observations were performed 2-3 times daily within the first 48 hrs, and at least once daily thereafter until study end. • Sampling of serum, liver, and kidney tissue. […] At the relevant inter-study post-dose timepoints, 3 animals per timepoint per treatment group (6 animals in the vehicle control group in study A) were sacrificed to collect terminal bleeds and collect relevant organs, such as liver and kidney tissues for further analyses. at end of study, the remaining 2 animals (4 in the control group in study A) per group were sacrificed. One half of the liver and one kidney was frozen and used for tissue RNA analysis.
The mRNA was isolated from frozen liver tissue using TRizol® Reagent (Thermo Scientific) according to the manufacturer's instruction. Conversion into cDNA was performed using iScript™ cDNA Synthesis Kit (BioRad). ApoB expression levels and levels of specific liver housekeeping genes were determined using quantitative real-time PCR assays (qRT-PCR) using iTaq™ Universal SYBR® Green Supermix (BioRad) and the Light Cycler 480 (Roche Diagnostics, Rotkreuz, Switzerland) with specific DNA primers, listed in Table A4 (study A) and Table A7 (study B), respectively. Analysis was done by the ΔCt method to determine ApoB expression relative to 2 liver-specific housekeeping control mRNAs. Each analysis reaction was performed in triplicate.

[3] = tested on: apoB RNA in primary human hepatocytes; test: apoB RNA expression analysis (qRT-PCR) after 72 hr treatment; format: cell-based; details: read-out: IC50 apoB RNA levels
Protocol: RNA from cells was isolated using TRI Reagent® Solution (Thermo Scientific) according to the manufacturer's instruction. Conversion into cDNA was performed using iScript™ cDNA Synthesis Kit (BioRad) using standard protocols. ApoB expression levels and levels of specific hepatocyte housekeeping genes were determined using quantitative real-time PCR assays (qRT-PCR) using iTaq™ Universal SYBR® Green Supermix (BioRad) and the Light Cycler 480 (Roche Diagnostics, Rotkreuz, Switzerland) with specific DNA primers, listed in Table A4. Analysis was done by the ΔCt method to determine ApoB expression relative to 2 hepatocyte-specific housekeeping control mRNAs. Each analysis reaction was performed in triplicate.
Covalent binding of the saponin to the GalNAc/oligonucleotide conjugate via a semicarbazone bond thus results in increased efficacy when relative apoB RNA levels are considered and compared with levels measured in cells which were contacted with a conjugate comprising saponin linked via a hydrazone bond to the GalNAc/oligonucleotide conjugate. Without wishing to be bound by any theory, improved efficacy of the release of free saponin from the conjugate, when the conjugate is transferred into the endosome, is at the basis for the improved potency of the oligonucleotide, as obtained with the conjugate comprising saponin bound via semicarbazone. […]

[4] = tested on: apoB protein in serum; test: In vivo efficacy: serum apoB protein (ELISA); set-up: species or system C57BL/6J mice; details: study B; 2 mg/kg; 72 hrs post-dose
Protocol: as §1, with “[…] […]” for “The compounds, formulated in PBS or PBS alone (vehicle) according to Table A5 and Table A6, were dosed at 5 ml/kg in the tail vain (intravenously, iv), with dose volumes corresponding to the individual bodyweights. Where applicable, trivalent (GalNAc)3-SO1861 (EMCH) was co-administered at 5 ml/kg in the tail vain (iv) right after the trivalent GalNAc-ApoB conjugate.”
ApoB protein levels in mouse serum was determined using an ApoB ELISA (ab230932, Abcam, Cambridge, UK), according to the manufacturer's instruction.

[5] = tested on: serum LDL-cholesterol (LDL-C); test: In vivo efficacy: serum LDL-cholesterol; set-up: species or system C57BL/6J mice
Protocol: as §1
LDL-cholesterol was measured in mouse serum, using an LDL-cholesterol specific two-step AU480 assay kit, respectively, from Beckman Coulter, with a photometric measurement according to the manufacturer's instructions.

5′-GCattggtatTCA-3′ (GCATTGGTATTCA; listed as DNA, chemistry not fully specified) [ApoB #02 BNA]
tolerability (clinical observations) [1]: well tolerated
reduction of liver apoB RNA compared to vehicle ([2]; 0.1 mg/kg iv, 24 hrs): not noticeably reduced
reduction of liver apoB RNA compared to vehicle ([2]; 1 mg/kg iv, 24 hrs): ~15%
reduction of liver apoB RNA compared to vehicle ([2]; 2 mg/kg iv, 24 hrs): ~21%
reduction of liver apoB RNA compared to vehicle ([2]; 2 mg/kg iv, 72 hrs): 39%
reduction of liver apoB RNA compared to vehicle ([2]; 2 mg/kg iv, 336 hrs): 30%
liver apoB RNA levels, % of vehicle control ([2]; study B, 2 mg/kg, 72 hrs): 53%
IC50 ([3]; relative ApoB #02 BNA concentration, no transfection agent (FIG. 19A)): 0.4 µM
IC50 ([3]; transfection with RNAi-MAX): 0.008 µM
serum apoB protein [4]: 57 µg/mL
reduction of serum LDL-C compared to vehicle ([5]; study A, 2 mg/kg, 72 hrs): ca. 50%
reduction of serum LDL-C compared to vehicle ([5]; study A, 2 mg/kg, 336 hrs): ca. 40%
serum LDL-C levels compared to vehicle ([5]; study A, 0.1, 1, or 2 mg/kg, 24 hrs): not noticeably reduced
serum LDL-C ([5]; study B, 2 mg/kg, 72 hrs post-dose): 2 mg/dL
